Assay: Part B: safety, treatment-emergent adverse events, DLT and MTD
Format: in vivo
Description: For the purpose of the present invention, the adverse events were graded as per the National Cancer Institute's, Common Terminology Criteria for Adverse Events (NCI-CTCAE) Version 4.03 and Version 5.0 (https://evs.nci.nih.gov/ftp1/CTCAE/About.html). It is a descriptive terminology which can be utilized for Adverse Event (AE) reporting.
AEs were graded as per NCI-CTCAE Version 5.0. In the present study, along with others most common AEs for which patients were monitored were thrombocytopenia, neutropenia and anemia, any AE reported by the patient after the completion of AE collection period and considered related to the study drug was reported.
Dose Limiting Toxicity (DLT) is defined as the occurrence of any of the following unless clearly and incontrovertibly related to the underlying disease. The hematological DLTs were defined as per the Phase of CML: • a) Grade 3 or higher, or other non-hematological toxicity, including nausea, vomiting and diarrhea, and refractory to standard antiemetic therapy except alopecia and nail disorders; • b) Missed ≥25% of doses over 28 days due to toxicity in Cycle 1; and • c) Any grade of toxicity requiring dose reduction or discontinuation of IMP within the 28-days DLT assessment period (Cycle 1).
Safety Parameters: Parts B and C: Descriptive summaries were provided for the safety variables collected. Continuous variables were summarized using mean, standard deviation, minimum, median, and maximum. Categorical variables were summarized using frequency counts and percentages. For time-to-event variables, other percentiles were presented. In addition, summaries of AEs by intensity, seriousness, frequency, and relationship to IMP are presented. Adverse events (AE) s were coded using the Medical Dictionary for Regulatory Activities (MedDRA) and summarized by System Organ Class (SOC) and Preferred Term (PT).
In this study, the dose-escalation cohort started with an accelerated titration study design (ATD) and shifted to a 3±3 design when subjects in the preceding ATD cohort experienced either grade 2 or higher adverse events (AEs) or dose-limiting toxicity (DLT) during Cycle 1 that was not clearly and incontrovertibly related to the underlying disease or concomitant medications. The DLT period consisted of 28 days (Cycle 1). Subjects experiencing DLTs were managed with dose delays and/or discontinuation and continued in the study until disease progression. Decisions to advance to a succeeding dose level occurred after the evaluation of safety and tolerability data for a given dose level.
For the cohorts, where the 3±3 design applies, 3 subjects were enrolled initially. If 2 of these subjects experienced a Grade 2 or more toxicity (that was not clearly and incontrovertibly related to the underlying disease or concomitant medications), subsequent cohorts were escalated according to smaller increments. Further, if there were no DLTs in the first 3 subjects, dose escalation to the next higher dose level was allowed to proceed. If 1 of the 3 subjects experienced a DLT, that dose level was expanded to 6 subjects (3 additional subjects were enrolled). If 2 subjects at a given dose level experienced a DLT, the MTD was considered to have been exceeded. The next lower dose level was expanded to 6 subjects, or if 6 subjects had already been enrolled and no more than 1 of the 6 subjects experienced a DLT, then this lower dose level was considered the MTD. Additional subjects were enrolled in dose escalation cohorts for further assessment of safety and efficacy of the compound of Formula 1 at doses that were tolerated (i.e., doses that have <2 DLTs in 6 enrolled subjects or <1 DLT in 3 enrolled subjects). Thus 204 mg was arrived at as MTD. A subject experiencing a DLT was allowed to continue therapy with a reduced dose. Subjects who experienced a DLT and recovered were treated at the next lower dose level until disease progression or other events requiring further dose reduction existed. […]

Cc1ccc(C(=O)NNC(=O)c2c(C)cccc2Cl)cc1C#Cc1cnc2ccccc2c1 [compound of Formula I, N′-(2-chloro-6-methylbenzoyl)-4-methyl-3-[2-(3-quinolyl)ethynyl]-benzohydrazide]
TEAEs: Dose modifications, Any grade (≤2 prior TKIs (N = 18)): 1 No of pts | TEAEs: Dose modifications, Grade 3/4 (≤2 prior TKIs (N = 18)): 1 No of pts | Thrombocytopenia, Any grade (≤2 prior TKIs (N = 18)): 7 No of pts | Thrombocytopenia, Grade 3/4 (≤2 prior TKIs (N = 18)): 3 No of pts | Vomiting, Any grade (≤2 prior TKIs (N = 18)): 0 No of pts | Vomiting, Grade 3/4 (≤2 prior TKIs (N = 18)): 0 No of pts | All TEAEs, Any grade (≥3 prior TKIs (N = 35)): 35 No of pts | All TEAEs, Grade 3/4 (≥3 prior TKIs (N = 35)): 28 No of pts | Amylase increased, Any grade (≥3 prior TKIs (N = 35)): 5 No of pts | Amylase increased, Grade 3/4 (≥3 prior TKIs (N = 35)): 4 No of pts | Anemia, Any grade (≥3 prior TKIs (N = 35)): 9 No of pts | Anemia, Grade 3/4 (≥3 prior TKIs (N = 35)): 5 No of pts | Back pain, Any grade (≥3 prior TKIs (N = 35)): 6 No of pts | Back pain, Grade 3/4 (≥3 prior TKIs (N = 35)): 0 No of pts | Constipation, Any grade (≥3 prior TKIs (N = 35)): 6 No of pts | Constipation, Grade 3/4 (≥3 prior TKIs (N = 35)): 0 No of pts | Cough, Any grade (≥3 prior TKIs (N = 35)): 8 No of pts | Cough, Grade 3/4 (≥3 prior TKIs (N = 35)): 0 No of pts | Death, Any grade (≥3 prior TKIs (N = 35)): 2 No of pts | Death, Grade 3/4 (≥3 prior TKIs (N = 35)): 0 No of pts | Decreased appetite, Any grade (≥3 prior TKIs (N = 35)): 5 No of pts | Decreased appetite, Grade 3/4 (≥3 prior TKIs (N = 35)): 0 No of pts | Diarrhoea, Any grade (≥3 prior TKIs (N = 35)): 11 No of pts | Diarrhoea, Grade 3/4 (≥3 prior TKIs (N = 35)): 1 No of pts | Fatigue, Any grade (≥3 prior TKIs (N = 35)): 5 No of pts | Fatigue, Grade 3/4 (≥3 prior TKIs (N = 35)): 0 No of pts | Headache, Any grade (≥3 prior TKIs (N = 35)): 7 No of pts | Headache, Grade 3/4 (≥3 prior TKIs (N = 35)): 0 No of pts | Lipase increased, Any grade (≥3 prior TKIs (N = 35)): 5 No of pts | Lipase increased, Grade 3/4 (≥3 prior TKIs (N = 35)): 4 No of pts | Myalgia, Any grade (≥3 prior TKIs (N = 35)): 6 No of pts | Myalgia, Grade 3/4 (≥3 prior TKIs (N = 35)): 0 No of pts | Nasopharyngitis, Any grade (≥3 prior TKIs (N = 35)): 3 No of pts | Nasopharyngitis, Grade 3/4 (≥3 prior TKIs (N = 35)): 0 No of pts | Nausea, Any grade (≥3 prior TKIs (N = 35)): 8 No of pts | Nausea, Grade 3/4 (≥3 prior TKIs (N = 35)): 0 No of pts | Neutropenia, Any grade (≥3 prior TKIs (N = 35)): 6 No of pts | Neutropenia, Grade 3/4 (≥3 prior TKIs (N = 35)): 5 No of pts | Pruritis, Any grade (≥3 prior TKIs (N = 35)): 4 No of pts | Pruritis, Grade 3/4 (≥3 prior TKIs (N = 35)): 0 No of pts | Pyrexia, Any grade (≥3 prior TKIs (N = 35)): 6 No of pts | Pyrexia, Grade 3/4 (≥3 prior TKIs (N = 35)): 1 No of pts | Rhinitis, Any grade (≥3 prior TKIs (N = 35)): 4 No of pts | Rhinitis, Grade 3/4 (≥3 prior TKIs (N = 35)): 0 No of pts | SAEs, Any grade (≥3 prior TKIs (N = 35)): 14 No of pts | SAEs, Grade 3/4 (≥3 prior TKIs (N = 35)): 10 No of pts | TEAEs Leading to drug withdrawal, Any grade (≥3 prior TKIs (N = 35)): 3 No of pts | TEAEs Leading to drug withdrawal, Grade 3/4 (≥3 prior TKIs (N = 35)): 2 No of pts | TEAEs Related to comp of Formula I, Any grade (≥3 prior TKIs (N = 35)): 23 No of pts | TEAEs Related to comp of Formula I, Grade 3/4 (≥3 prior TKIs (N = 35)): 11 No of pts | TEAEs: Dose discontinued and restarted, Any grade (≥3 prior TKIs (N = 35)): 15 No of pts | TEAEs: Dose discontinued and restarted, Grade 3/4 (≥3 prior TKIs (N = 35)): 10 No of pts | TEAEs: Dose modifications, Any grade (≥3 prior TKIs (N = 35)): 10 No of pts | TEAEs: Dose modifications, Grade 3/4 (≥3 prior TKIs (N = 35)): 5 No of pts | Thrombocytopenia, Any grade (≥3 prior TKIs (N = 35)): 17 No of pts | Thrombocytopenia, Grade 3/4 (≥3 prior TKIs (N = 35)): 7 No of pts | Vomiting, Any grade (≥3 prior TKIs (N = 35)): 7 No of pts | Vomiting, Grade 3/4 (≥3 prior TKIs (N = 35)): 0 No of pts

From US20260069584A1, “METHODS OF TREATING CHRONIC MYELOID LEUKEMIA USING THE TYROSINE KINASE INHIBITOR VODOBATINIB” (Sun Pharma Advanced Research Company Ltd., priority 2022, published 2026)
